Results taken from patent US20250017959A1 (priority 2021, published 2025).

Tested on: HSPC-pDC

Compound: CC[C@@H]1[C@H](F)C(=O)N[C@@H]1COc1nccc2cc(C(N)=O)c(OC)cc12 [IRAK4 inhibitor, Pf06650833]
- cell viability: without major effects
